Assays:
[1] = tested on: zrt1zrt2 double mutant strain ZHY3; assay: 65Zn uptake assay in zrt1zrt2 double mutant; format: cell-based, Saccharomyces cerevisiae; details: ZHY3 without ZIP gene, 5 minute time course using 10 mM Zn
Protocol: Zinc uptake assays were performed as described previously for iron uptake (Eide et al. (1992) J. Biol. Chem. 267:20774-20781) except that ^65ZnCl2 (Amersham) and LZM-EDTA were substituted for ^59FeCI3 and LIM-EDTA, respectively. Cells were incubated for 5 minutes in LZM-EDTA plus the indicated concentration of ^65Zn, collected on glass fiber filters (Schleicher and Schuell), washed with 10 ml ice-cold SSW (1 mM EDTA, 20 mM trisodium citrate, 1 mM KH2PO4, 1 mM CaCl2, 5 mM MgSO4, 1 mM NaCl pH 4.2), and cell-associated radioactivity was measured by liquid scintillation counting. […] Michaelis-Menten kinetic values were determined using […] software (Intellikinetics, Princeton, N.J.). […] The statistical significance of the differences of values relative to controls was determined with one-way analysis of variance (ANOVA) followed by a Dunnett multiple comparison test. β-galactosidase activity was assayed in cells harvested at an OD600 of 0.5-2.0 as described by Guarente (Guarente, L. (1983) Methods Enzymol. 101:181-191) and activity is expressed as the change in absorbance at 420 nm×1000 divided by (min×ml of culture used×OD600 of the culture). Cell-associated zinc was measured in parallel cultures supplemented with tracer amounts of ^65Zn (10 μM) and nonradioactive zinc to the indicated final concentration. […]

[2] = tested on: zrt1zrt2 (ZHY3) cells; assay: Zinc-limited growth, zrt1zrt2 mutant yeast; format: cell-based, Saccharomyces cerevisiae
Protocol: Strains used were DY1457 (MATα ade6 can1 his3 leu2 trp1 ura3), ZHY1 (AMTα ade6 can1 his3 leu2 trp1 ura3 zrt1::LEU2), ZHY2 (MATα ade6 can1 his3 leu2 trp1 ura3 zrt2::HIS3), and ZHY3 (MATα ade6 can1 his3 leu2 trp1 ura3 zrt1::LEU2 zrt2::HIS3). Yeast were grown in YP or SD media (Sherman et al. (1986) Methods in Yeast Genetics, Cold Spring Harbor Laboratory, Cold Spring Harbor, N.Y.) supplemented with necessary auxotrophic requirements and either 2% glucose or 2% galactose. Zinc-limiting YP and SD agar plates contained either bathophenanthroline disulfonate (BPS, 200 μM) or EDTA (1 mM), respectively. A liquid zinc-limiting medium (low zinc medium, LZM) was prepared in the same manner as low iron medium (LIM) (Eide and Guarente (1992) J. Gen. Microbiol. 138:347-354) except that the […]. LZM is similar in composition to SD medium with two modifications essential to controlling zinc availability. First, 1 mM EDTA is added to provide buffering for the concentration of free metal ions. Second, the medium is pH-buffered at 4.2 with 20 mM citrate to prevent pH changes that could alter the metal binding ability of EDTA. LZM was also prepared without EDTA ([…]) which is less zinc-limiting because the predominant chelator in this medium, citrate, binds zinc with less affinity than does EDTA. The concentrations of free (i.e. unchelated) zinc were calculated using MAXCHELATOR software (Chris Patton, Stanford University). Cell number in liquid cultures was determined by measuring the absorbance of cell suspensions at 600 nm (OD600) and converting to cell number with a standard curve.
To further assess the role of the low affinity system as a source of zinc, growth of wild type and zrt2 cells in a zinc-limiting medium, LZM, supplemented with increasing amounts of zinc was examined. The same strains as in FIG. 15 were grown for six hours in SD glucose medium, harvested, washed in LZM, and reinoculated into either LZM (FIG. 15A) or LZM-EDTA (FIG. 15B) supplemented with the indicated concentrations of ZnCl2 ([Zn]T). These cultures were then grown for 16 hours at 30° C. prior to cell number determination. Number of cell divisions are plotted against [Zn]T and the calculated free zinc concentration ([Zn]F). The metal ion buffering capacity of EDTA in LZM is exceeded at concentrations above 100 μM total zinc whereas the metal buffering capacity of citrate in LZM-EDTA maintains a linear relationship between [Zn]T and [Zn]F to concentrations greater than 1 mM. It has been shown previously that the zrt1 mutant requires greater than 500 μM total zinc ([Zn]T) in LZM to undergo its maximum number of cell divisions and this value corresponds to a calculated free (i.e. unchelated) zinc concentration ([Zn]F) of approximately 500 μM. […]

Structure (SMILES): [Zn+2] [zinc]
- zinc uptake [1]: essentially no detectable zinc uptake
- calculated free zinc [Zn]F for maximum number of divisions ([2]; zrt1zrt2, LZM-EDTA, 16 hours): ~6 µM
- total zinc for maximum number of divisions ([2]; zrt1zrt2, LZM-EDTA, 16 hours): 500 µM
- zinc required in the medium relative to the wild type strain ([2]; zrt1zrt2 vs wild type): greater than 10^5 fold
- zinc required for growth relative to the zrt1 strain ([2]; zrt1zrt2 vs zrt1): at least 1000 fold
